Measurements reported in patent US10273229B2, “N-substituted 4-aminoquinazoline derivatives and methods of use” (priority 2014, dated 2019).

Assays:
Syk = Syk (Homo sapiens, UniProt P43405); assay: Syk kinase inhibition (Table 1)
EGFR [1] = biological target: T1, EGFR (Homo sapiens, UniProt P00533); assay: EGFR kinase inhibition (Table 1)
ErbB4 = ErbB4 (Homo sapiens, UniProt Q15303); assay: ErbB4 kinase inhibition (Table 1); assay type: biochemical
CYP3A4 [2] = biological target: T2, CYP3A4 (Homo sapiens, UniProt P08684); details: in words; for CYP3A4 inhibitor potency after preincubation with the test compound, compared with lapatinib: time dependent arm
CYP3A4 [3] = biological target: T2, CYP3A4
human ErbB2 [4] = biological target: T3, human ErbB2 (Homo sapiens, UniProt P04626); assay: ErbB2 kinase assay, FRET peptide substrate (Example 3); assay type: biochemical; details: ErbB2 or EGFR (either kinase); in words
Experimental: Kinase assays were performed using standard protocols known to those skilled in the art. In brief, kinase, peptide substrate labeled with both coumarin (donor fluorophore) and fluorescein (acceptor fluorophore), ATP, and test compound are incubated together in a kinase reaction buffer. Typically, the reaction was stopped by development reagent (protease) with certain dilution factor after 2 hours. The plate was analyzed in Perkin Elmer Envision by FRET mode. The high ratio of coumarin/fluorescein represents 0% phosphorylation rate while low ratio of coumarin/fluorescein represents 100% phosphorylation rate.

EGFR [5] = biological target: T1, EGFR; assay: EGFR kinase assay at RBC, 33P-ATP filter binding (Example 5); assay type: biochemical; details: in words
Experimental: The synthesis and biochemical testing of these compounds was completed using alternate CROs as a control for characterizing compounds. Kinase assays were performed at RBC using standard protocols known to those skilled in the art. In brief, kinase, any required cofactors, substrate in DMSO, and kinase reaction mixture (by acoustic technology; Echo 550; nanoliter range) were incubated for 20 minutes at room temperature. 33P-ATP was added to initiate the reaction, which was incubated for 2 hours at room temperature.

human ErbB2 [6] = biological target: T3, human ErbB2; assay: ErbB2 kinase assay at RBC, 33P-ATP filter binding (Example 5); assay type: biochemical; details: in words
Experimental: The synthesis and biochemical testing of these compounds was completed using alternate CROs as a control for characterizing compounds.
Kinase assays were performed at RBC using standard protocols known to those skilled in the art. In brief, kinase, any required cofactors, substrate in DMSO, and kinase reaction mixture (by acoustic technology; Echo 550; nanoliter range) were incubated for 20 minutes at room temperature. 33P-ATP was added to initiate the reaction, which was incubated for 2 hours at room temperature.

BT-474 cells [7] = assay: Cytotoxicity against BT-474 cells, CellTiter 96 (Example 4); assay type: cell-based, human; details: in words
Experimental: (§1) All of the test compounds were kept between 4° C. to 8° C. in solid form or as solution in DMSO. The cell lines BT-474 and NCI-N87 were obtained from the ATCC. The cell lines were maintained in liquid nitrogen. Cell lines were prepared by thawing a 1 mL vial of the cell line and splitting it into two T-75 flasks with 10 mL of the appropriate media. BT-474 and NCI-N87 both utilized RPMI 1640 with varying glucose content (1 g/L for BT-474 and 4.5 g/L for NCI-N87). The cell lines were trypsinized and split into two T-150 flasks each time the cell lines reached 70-90% confluency. When there were at least two confluent T-150 flasks of cell lines available, cultures were trypsinized and the cells enumerated using a hemocytometer and added to a 96-well microtiter plate at 1.5×10^5 cells/mL. The 96-well plates were then incubated at 37° C. with 5% CO2 for 24 hours to allow enough time for the cells to adhere to the wells. […] Lapatinib and media without the test compounds were used as controls. All 96-well plates were incubated at 37° C. with 5% CO2 for 3 days with plates containing BT-474 and for 6 days with plates containing NCI-N87. […] After recovery, cell viability was determined using the CellTiter 96® Aqueous One Solution Cell Proliferation Assay kit (Promega). The optical density (OD) was read using a SPECTRAMAX® M5 Microplate Reader (Molecular Devices) at 490 nm. […]

NCI-N87 cells = assay: Cytotoxicity against NCI-N87 cells, CellTiter 96 (Example 4); assay type: cell-based; details: in words
Experimental: as §1

BT-474 cells [8] = assay: Cytotoxicity against BT-474 cells at RBC, Cell Titer-Glo 2.0 (Example 6); assay type: cell-based, human; details: in words
Experimental: All of the test compounds were kept between 4° C. to 8° C. in solid form or as solution in DMSO. The cell line BT-474 was obtained from the ATCC. Test compounds were dissolved in DMSO (10 mM stock). Cell Titer-Glo® 2.0 Luminescent cell viability assay reagent was obtained from Promega. BT474 human breast cancer cell line was grown in Hybri-care medium supplemented with 1.5 g/L sodium bicarbonate and 10% FBS. 100 μg/ml penicillin and 100 μg/ml streptomycin were added to all culture media. Cultures were maintained at 37° C. in a humidified atmosphere of 5% CO2 and 95% air. Test compounds in DMSO were added in a source plate. 25 nL of test compounds was delivered from the source plate to each well of the 384-well cell culture plates by Echo 550. 25 μl of culture medium containing 1000 cells for each cell line was added to the wells of the cell culture plates. […] The contents were mixed on an orbital shaker for 2 minutes and incubated at room temperature for 10 minutes to stabilize luminescent signal Luminescence was recorded by Envision 2104 Multilabel Reader (Perkin Elmer). The number of viable cells in culture was determined based on quantization of the ATP present in each culture well. The IC50 values were calculated and the IC50 curves were plotted using the GraphPad Prism 4 program based on a sigmoidal dose-response equation.

T2 sequence (P08684 whole entry): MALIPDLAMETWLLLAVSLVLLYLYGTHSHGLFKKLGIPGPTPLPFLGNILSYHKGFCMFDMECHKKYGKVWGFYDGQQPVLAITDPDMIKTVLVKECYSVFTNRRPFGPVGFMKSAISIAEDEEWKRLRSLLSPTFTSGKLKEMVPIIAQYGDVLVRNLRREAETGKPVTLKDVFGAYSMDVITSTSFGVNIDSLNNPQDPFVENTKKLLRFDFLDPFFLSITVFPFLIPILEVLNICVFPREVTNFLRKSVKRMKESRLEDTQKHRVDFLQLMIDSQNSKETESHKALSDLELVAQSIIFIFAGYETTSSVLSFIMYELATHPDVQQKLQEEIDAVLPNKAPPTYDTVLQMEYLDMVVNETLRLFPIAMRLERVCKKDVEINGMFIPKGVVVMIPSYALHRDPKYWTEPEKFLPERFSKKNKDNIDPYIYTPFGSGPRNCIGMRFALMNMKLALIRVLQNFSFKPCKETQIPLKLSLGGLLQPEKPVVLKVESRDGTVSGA
T3 sequence (P04626 23-1255): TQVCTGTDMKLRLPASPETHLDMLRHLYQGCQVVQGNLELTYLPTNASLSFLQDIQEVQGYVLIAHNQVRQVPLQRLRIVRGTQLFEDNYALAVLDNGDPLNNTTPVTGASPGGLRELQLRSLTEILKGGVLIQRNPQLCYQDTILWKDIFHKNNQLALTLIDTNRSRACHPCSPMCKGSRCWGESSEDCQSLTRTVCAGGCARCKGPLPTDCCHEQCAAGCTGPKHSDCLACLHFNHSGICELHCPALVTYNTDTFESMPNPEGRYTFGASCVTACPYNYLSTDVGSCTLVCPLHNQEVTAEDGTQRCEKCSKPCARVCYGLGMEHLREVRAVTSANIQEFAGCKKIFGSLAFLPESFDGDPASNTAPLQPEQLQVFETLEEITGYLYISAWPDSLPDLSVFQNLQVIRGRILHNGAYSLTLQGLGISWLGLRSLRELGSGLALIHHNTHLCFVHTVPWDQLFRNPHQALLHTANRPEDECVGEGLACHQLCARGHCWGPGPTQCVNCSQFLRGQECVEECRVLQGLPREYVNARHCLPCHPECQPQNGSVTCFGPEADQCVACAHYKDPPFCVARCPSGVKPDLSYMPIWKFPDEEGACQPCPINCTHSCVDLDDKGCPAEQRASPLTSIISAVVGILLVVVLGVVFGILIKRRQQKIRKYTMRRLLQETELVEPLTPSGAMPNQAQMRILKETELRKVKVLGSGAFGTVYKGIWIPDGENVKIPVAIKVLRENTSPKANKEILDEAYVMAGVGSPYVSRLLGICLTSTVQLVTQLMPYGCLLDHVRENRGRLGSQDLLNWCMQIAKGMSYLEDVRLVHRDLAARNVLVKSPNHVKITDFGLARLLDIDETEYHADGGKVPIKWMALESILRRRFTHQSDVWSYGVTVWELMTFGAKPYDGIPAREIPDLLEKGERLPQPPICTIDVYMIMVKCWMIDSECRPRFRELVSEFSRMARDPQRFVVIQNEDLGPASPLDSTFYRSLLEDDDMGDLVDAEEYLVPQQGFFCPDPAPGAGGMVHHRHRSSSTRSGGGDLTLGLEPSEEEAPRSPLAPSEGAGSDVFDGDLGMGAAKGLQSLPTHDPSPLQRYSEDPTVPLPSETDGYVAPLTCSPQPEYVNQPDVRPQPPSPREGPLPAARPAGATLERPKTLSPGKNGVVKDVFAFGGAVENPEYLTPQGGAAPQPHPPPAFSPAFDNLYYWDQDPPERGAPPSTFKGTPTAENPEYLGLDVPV
T1 sequence (P00533 25-1210): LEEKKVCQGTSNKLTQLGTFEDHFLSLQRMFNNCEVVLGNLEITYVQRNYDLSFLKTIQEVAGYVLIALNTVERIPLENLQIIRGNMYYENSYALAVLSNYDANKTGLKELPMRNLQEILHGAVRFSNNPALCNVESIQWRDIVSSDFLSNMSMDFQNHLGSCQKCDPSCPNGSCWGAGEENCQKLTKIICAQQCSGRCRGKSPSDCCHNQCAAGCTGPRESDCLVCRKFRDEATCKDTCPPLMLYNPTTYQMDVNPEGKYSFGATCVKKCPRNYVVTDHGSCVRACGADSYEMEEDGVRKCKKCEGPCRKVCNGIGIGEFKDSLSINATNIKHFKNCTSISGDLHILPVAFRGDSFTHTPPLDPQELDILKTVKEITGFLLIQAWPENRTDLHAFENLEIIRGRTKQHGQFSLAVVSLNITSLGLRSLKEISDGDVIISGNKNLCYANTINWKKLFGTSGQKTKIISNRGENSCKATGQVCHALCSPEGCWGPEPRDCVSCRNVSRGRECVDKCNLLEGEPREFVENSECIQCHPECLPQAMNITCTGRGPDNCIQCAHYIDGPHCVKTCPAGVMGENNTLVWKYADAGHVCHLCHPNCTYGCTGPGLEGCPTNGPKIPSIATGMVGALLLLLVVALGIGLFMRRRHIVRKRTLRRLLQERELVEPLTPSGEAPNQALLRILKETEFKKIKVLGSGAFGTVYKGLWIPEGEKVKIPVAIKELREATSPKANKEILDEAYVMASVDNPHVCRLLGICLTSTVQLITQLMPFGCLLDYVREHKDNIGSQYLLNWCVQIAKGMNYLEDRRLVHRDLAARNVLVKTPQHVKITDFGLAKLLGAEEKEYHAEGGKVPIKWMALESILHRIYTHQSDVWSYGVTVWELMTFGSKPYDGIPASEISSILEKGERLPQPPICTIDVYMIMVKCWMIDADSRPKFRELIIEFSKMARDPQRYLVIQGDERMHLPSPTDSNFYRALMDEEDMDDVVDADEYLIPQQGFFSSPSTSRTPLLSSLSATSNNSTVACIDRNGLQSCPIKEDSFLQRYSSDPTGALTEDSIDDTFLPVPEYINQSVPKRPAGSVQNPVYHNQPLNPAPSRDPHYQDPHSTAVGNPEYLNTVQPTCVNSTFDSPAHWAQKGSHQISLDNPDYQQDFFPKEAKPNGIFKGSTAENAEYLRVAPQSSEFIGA
ErbB4, sequence (Q15303 26-1308, species assumed): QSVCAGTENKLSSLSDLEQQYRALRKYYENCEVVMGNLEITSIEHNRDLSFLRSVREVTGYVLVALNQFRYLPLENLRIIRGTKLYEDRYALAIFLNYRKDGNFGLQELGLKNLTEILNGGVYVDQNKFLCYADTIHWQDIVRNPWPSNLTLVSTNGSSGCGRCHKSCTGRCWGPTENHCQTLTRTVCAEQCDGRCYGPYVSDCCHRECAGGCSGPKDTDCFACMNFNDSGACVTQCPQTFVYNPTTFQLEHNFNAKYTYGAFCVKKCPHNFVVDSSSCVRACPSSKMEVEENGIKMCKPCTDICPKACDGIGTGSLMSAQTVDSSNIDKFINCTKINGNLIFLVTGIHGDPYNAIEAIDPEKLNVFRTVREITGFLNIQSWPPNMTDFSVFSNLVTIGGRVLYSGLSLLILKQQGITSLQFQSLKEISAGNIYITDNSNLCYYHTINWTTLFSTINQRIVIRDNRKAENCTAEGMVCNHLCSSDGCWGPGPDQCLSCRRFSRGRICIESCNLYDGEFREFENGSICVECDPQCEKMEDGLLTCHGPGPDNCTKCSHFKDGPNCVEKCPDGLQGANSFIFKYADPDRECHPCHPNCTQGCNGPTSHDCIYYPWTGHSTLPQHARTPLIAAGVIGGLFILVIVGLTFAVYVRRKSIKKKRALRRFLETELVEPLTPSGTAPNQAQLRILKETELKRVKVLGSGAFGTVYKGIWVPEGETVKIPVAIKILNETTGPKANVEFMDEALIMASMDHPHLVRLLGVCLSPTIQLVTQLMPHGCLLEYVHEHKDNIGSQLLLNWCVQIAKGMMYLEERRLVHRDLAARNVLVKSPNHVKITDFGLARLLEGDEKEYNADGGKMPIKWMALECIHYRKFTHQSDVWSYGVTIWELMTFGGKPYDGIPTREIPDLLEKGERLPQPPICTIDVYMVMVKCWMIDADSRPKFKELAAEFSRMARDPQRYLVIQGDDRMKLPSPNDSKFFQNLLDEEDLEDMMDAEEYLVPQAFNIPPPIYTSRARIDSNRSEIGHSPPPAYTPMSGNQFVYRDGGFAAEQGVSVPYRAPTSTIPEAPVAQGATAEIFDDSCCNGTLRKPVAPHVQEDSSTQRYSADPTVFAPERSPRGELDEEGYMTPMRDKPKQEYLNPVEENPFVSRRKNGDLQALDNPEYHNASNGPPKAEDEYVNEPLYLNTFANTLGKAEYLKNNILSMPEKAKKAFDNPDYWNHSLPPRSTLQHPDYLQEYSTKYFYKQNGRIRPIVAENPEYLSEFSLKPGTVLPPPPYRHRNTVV

Compound | CYP3A4 inhibitor potency compared with lapatinib (CYP3A4 [2]) | CYP3A4 inhibitor potency after preincubation with the test compound, compared with lapatinib (CYP3A4 [2]) | inhibition of ErbB2 or EGFR, potency compared with lapatinib (human ErbB2 [4]) | Ratio IC50:TD*** (CYP3A4 [3]) | also measured
CS(=O)(=O)CCN(O)Cc1ccc(-c2ccc3ncnc(Nc4ccc(OCc5cccc(F)c5)c(Cl)c4)c3c2)o1 [Compound 2] |  |  |  |  | IC50 (Syk): > 10000 nM; IC50 (EGFR [1]): 72 nM; IC50 (ErbB4): 32 nM
CN(C)C(=O)ON(CCS(C)(=O)=O)Cc1ccc(-c2ccc3ncnc(Nc4ccc(OCc5cccc(F)c5)c(Cl)c4)c3c2)o1 [Compound 4] | less potent | less potent |  |  | 
CS(=O)(=O)CCN(Cc1ccc(-c2ccc3ncnc(Nc4ccc(OCc5cccc(F)c5)c(Cl)c4)c3c2)o1)S(C)(=O)=O [Compound 7] | less potent | less potent | better potency than lapatinib | ++ | BT-474 IC50 compared with lapatinib (BT-474 cells [7]): lower than those observed for lapatinib; NCI-N87 IC50 compared with lapatinib (NCI-N87 cells): lower than those observed for lapatinib
CC(=O)N(CCS(C)(=O)=O)Cc1ccc(-c2ccc3ncnc(Nc4ccc(OCc5cccc(F)c5)c(Cl)c4)c3c2)o1 [Compound 8] |  | less potent | better potency than lapatinib |  | 
CS(=O)(=O)CCN(Cc1ccc(-c2ccc3ncnc(Nc4ccc(OCc5cccc(F)c5)c(Cl)c4)c3c2)o1)C1CCC1 [Compound 10] | less potent | less potent | better potency than lapatinib | + | time dependent shift of CYP3A4 inhibition compared with lapatinib (CYP3A4 [2]): possible exception

Further lines, with some results ahead:

CYP3A4 inhibitor potency compared with lapatinib (CYP3A4 [2]) | CYP3A4 inhibitor potency after preincubation with the test compound, compared with lapatinib (CYP3A4 [2]) | inhibition of ErbB2 or EGFR, potency compared with lapatinib (human ErbB2 [4]) | Compound | Ratio IC50:TD*** (CYP3A4 [3]) | also measured
less potent | less potent |  | CS(=O)(=O)CCN(Cc1ccc(-c2ccc3ncnc(Nc4ccc(OCc5cccc(F)c5)c(Cl)c4)c3c2)o1)OC(N)=O [Compound 3] |  | 
 |  | better potency than lapatinib | COC(=O)ON(CCS(C)(=O)=O)Cc1ccc(-c2ccc3ncnc(Nc4ccc(OCc5cccc(F)c5)c(Cl)c4)c3c2)o1 [Compound 5] | ++ | 
less potent | less potent | better potency than lapatinib | CS(=O)(=O)CCN(CC(=O)O)Cc1ccc(-c2ccc3ncnc(Nc4ccc(OCc5cccc(F)c5)c(Cl)c4)c3c2)o1 [Compound 6] | +++ | EGFR inhibition potency compared with lapatinib (EGFR [5]): better potency than lapatinib; ErbB2 inhibition potency compared with lapatinib (human ErbB2 [6]): better potency than lapatinib
 | less potent | better potency than lapatinib | CS(=O)(=O)CCN(Cc1ccc(-c2ccc3ncnc(Nc4ccc(OCc5cccc(F)c5)c(Cl)c4)c3c2)o1)C1COC1 [Compound 9] | +++ | BT-474 IC50 compared with lapatinib (BT-474 cells [7]): lower than those observed for lapatinib; BT-474 IC50 compared with lapatinib (BT-474 cells [8]): lower IC50 than lapatinib; NCI-N87 IC50 compared with lapatinib (NCI-N87 cells): lower than those observed for lapatinib
